25 molecules from patent publication US9364482B2, “Substituted benzofuran compounds and methods of use thereof for the treatment of viral diseases” (priority 2013, dated 2016) can be followed below.

One may read the IC50 as the concentration needed to halve the response being measured.

Read-outs that look alike come from different tables or passages of the source.

The test system of one assay is HCV replicon genotype 1b. Put plainly: microbe, parasite or virus in culture. The assay is classed as cell-based, hepatitis C virus (HCV).
For the next assay, the system named is HCV replicon genotype 1a. Put plainly: microbe, parasite or virus in culture. The assay is classed as cell-based, hepatitis C virus (HCV).
The mark [1] stands for this setting: Hepatitis C virus, 96 h, read-out: 1b IC50 (nM).
Setting [2] is: Hepatitis C virus, 96 h, read-out: 1a IC50 (nM).

Turning to `CNC(=O)c1c(-c2ccc(F)cc2)oc2cc(N(C)S(C)(=O)=O)c(-c3cnc4ncn([C@H](C)c5ccc(F)cc5)c(=O)c4c3)cc12` [Compound 25], the IC50 in the assay with HCV replicon genotype 1b (setting [1]) was determined as 11.9 nM; in the assay on HCV replicon genotype 1a (setting [2]), 16.3 nM.
Take `CNC(=O)c1c(-c2ccc(F)cc2)oc2cc(N(C)S(C)(=O)=O)c(-c3ccc4c(n3)C(=O)N(CCc3ccccc3)CO4)cc12` [Compound 4]: the IC50 came out at 15.2 nM in the assay with HCV replicon genotype 1b (setting [1]) and 39.9 nM in the assay on HCV replicon genotype 1a (setting [2]).
The like results for `CNC(=O)c1c(-c2ccc(F)cc2)oc2cc(N(C)S(C)(=O)=O)c(-c3cnc4ncn(-c5cccc(F)c5)c(=O)c4c3)cc12` [Compound 23] were, in that order, 3.24 nM and 3.98 nM.
For `CNC(=O)c1c(-c2ccc(F)cc2)oc2cc(N(C)S(C)(=O)=O)c(-c3ccc4nnn([C@H](C)c5ccc(F)cc5)c(=O)c4c3)cc12` [Compound 46, 2-(4-fluorophenyl)-5-{3-[(1R)-1-(4-fluorophenyl)ethyl]-4-oxo-3,4-dihydro-1,2,3-benzotriazin-6-yl}-N-methyl-6-[methyl(methylsulfonyl)amino]-1-benzofuran-3-carboxamide] the same measures were 10.2 nM and 7.65 nM.
Turning to `CNC(=O)c1c(-c2ccc(F)cc2)oc2cc(N(C)S(C)(=O)=O)c(-c3ccc4nnn(C(CO)c5ccccc5)c(=O)c4c3)cc12` (centres unmarked) [Compound 43, 2-(4-fluorophenyl)-5-[3-(2-hydroxy-1-phenylethyl)-4-oxo-3,4-dihydro-1,2,3-benzotriazin-6-yl]-N-methyl-6-[methyl(methylsulfonyl)amino]-1-benzofuran-3-carboxamide], the IC50 with HCV replicon genotype 1b (setting [1]) was 9.66 nM; with HCV replicon genotype 1a (setting [2]), 15.1 nM.
In the case of `CNC(=O)c1c(-c2ccc(F)cc2)oc2cc(N(C)S(C)(=O)=O)c(-c3ccc4nc(CNC(C)=O)n(Cc5ccc(F)cc5)c(=O)c4c3)cc12` [Compound 54, 5-{2-[(acetylamino)methyl]-3-(4-fluorobenzyl)-4-oxo-3,4-dihydroquinazolin-6-yl}-2-(4-fluorophenyl)-N-methyl-6-[methyl(methylsulfonyl)amino]-1-benzofuran-3-carboxamide], the values for the IC50 in the assay with HCV replicon genotype 1b (setting [1]) and in the assay with HCV replicon genotype 1a (setting [2]) were 2.73 nM and 2.34 nM, respectively.
For `CNC(=O)c1c(-c2ccc(F)cc2)oc2cc(N(C)S(C)(=O)=O)c(-c3ccc4nc(COC)n(Cc5ccc(F)cc5)c(=O)c4c3)cc12` [Compound 53, 5-(3-(4-fluorobenzyl)-2-(methoxymethyl)-4-oxo-3,4-dihydroquinazolin-6-yl)-2-(4-fluorophenyl)-N-methyl-6-(N-methylmethylsulfonamido)benzofuran-3-carboxamide] the same measures were 2.45 nM and 2.57 nM.
As for `CNC(=O)c1c(-c2ccc(F)cc2)oc2ccc(-c3ccc4c(n3)C(=O)N(Cc3ccc(F)cc3)CC4)cc12` [Compound 37, 5-(7-(4-fluorobenzyl)-8-oxo-5,6,7,8-tetrahydro-1,7-naphthyridin-2-yl)-2-(4-fluorophenyl)-N-methylbenzofuran-3-carboxamide], the IC50 in the assay with HCV replicon genotype 1b (setting [1]) is 11.4 nM; with HCV replicon genotype 1a (setting [2]), 77.3 nM.
The like results for `CNC(=O)c1c(-c2ccc(F)cc2)oc2cc(N(C)S(C)(=O)=O)c(-c3ccc4oc(=O)n(Cc5ccc(F)cc5)c(=O)c4n3)cc12` [Compound 14, 5-(3-(4-fluorobenzyl)-2,4-dioxo-3,4-dihydro-2H-pyrido[2,3-e][1,3]oxazin-6-yl)-2-(4-fluorophenyl)-N-methyl-6-(N-methylmethylsulfonamido)benzofuran-3-carboxamide] were, in that order, 35.9 nM and 435 nM.
For `CNC(=O)c1c(-c2ccc(F)cc2)oc2cc(N(C)S(C)(=O)=O)c(-c3cnc4ncn(-c5ccc(F)cc5)c(=O)c4c3)cc12` [Compound 22] the same measures were 4.12 nM and 16.2 nM.
For `CNC(=O)c1c(-c2ccc(F)cc2)oc2cc(N(C)S(C)(=O)=O)c(-c3ccc4nc(C)n([C@@H](COC)c5ccc(F)cc5)c(=O)c4n3)cc12` [Compound 65, (R)-2-(4-fluorophenyl)-5-(3-(1-(4-fluorophenyl)-2-methoxyethyl)-2-methyl-4-oxo-3,4-dihydropyrido[3,2-d]pyrimidin-6-yl)-N-methyl-6-(N-methylmethylsulfonamido)benzofuran-3-carboxamide] the same measures were 2.95 nM and 9.28 nM.
As to `CNC(=O)c1c(-c2ccc(F)cc2)oc2cc(N(C)S(C)(=O)=O)c(-c3ccc4c(n3)C(=O)N(Cc3ccccc3)CO4)cc12` [Compound 1, 5-(3-benzyl-4-oxo-3,4-dihydro-2H-pyrido[2,3-e][1,3]oxazin-6-yl)-2-(4-fluorophenyl)-N-methyl-6-(N-methylmethylsulfonamido)benzofuran-3-carboxamide], the values for the IC50 in the assay with HCV replicon genotype 1b (setting [1]) and in the assay with HCV replicon genotype 1a (setting [2]) were 2.44 nM and 3.22 nM, respectively.
The like results for `CNC(=O)c1c(-c2ccc(F)cc2)oc2cc(N(C)S(C)(=O)=O)c(-c3ccc4nnn(Cc5ccc(F)cc5OC)c(=O)c4c3)cc12` [Compound 47, 5-[3-(4-fluoro-2-methoxybenzyl)-4-oxo-3,4-dihydro-1,2,3-benzotriazin-6-yl]-2-(4-fluorophenyl)-N-methyl-6-[methyl(methylsulfonyl)amino]-1-benzofuran-3-carboxamide] were, in that order, 20.6 nM and 20.2 nM.
For `CNC(=O)c1c(-c2ccc(F)cc2)oc2cc(N(C)S(C)(=O)=O)c(-c3ccc4ncn([C@H](C)c5ccc(F)cc5)c(=O)c4c3)cc12` [Compound 50, 2-(4-fluorophenyl)-5-{3-[(1R)-1-(4-fluorophenyl)ethyl]-4-oxo-3,4-dihydroquinazolin-6-yl}-N-methyl-6-[methyl(methylsulfonyl)amino]-1-benzofuran-3-carboxamide] the same measures were 4.23 nM and 3.18 nM.
For `CNC(=O)c1c(-c2ccc(F)cc2)oc2cc(N(C)S(C)(=O)=O)c(-c3ccc4nnn(Cc5ccccc5)c(=O)c4c3)cc12` [Compound 42, 5-(3-benzyl-4-oxo-3,4-dihydro-1,2,3-benzotriazin-6-yl)-2-(4-fluorophenyl)-N-methyl-6-[methyl(methylsulfonyl)amino]-1-benzofuran-3-carboxamide] the same measures were 9.55 nM and 9.48 nM.
On to `CNC(=O)c1c(-c2ccc(F)cc2)oc2cc(N(C)S(C)(=O)=O)c(-c3ccc4c(n3)C(=O)N(Cc3cccc(F)c3)CO4)cc12` [Compound 7], for which the IC50 is 1.06 nM in the assay on HCV replicon genotype 1b (setting [1]) and 1.48 nM in the assay with HCV replicon genotype 1a (setting [2]).
As to `CNC(=O)c1c(-c2ccc(F)cc2)oc2cc(N(C)S(C)(=O)=O)c(-c3ccc4nc(C)n(Cc5ccc(F)cc5)c(=O)c4n3)cc12` [Compound 68, 5-(3-(4-fluorobenzyl)-2-methyl-4-oxo-3,4-dihydropyrido[3,2-d]pyrimidin-6-yl)-2-(4-fluorophenyl)-N-methyl-6-(N-methylmethylsulfonamido)benzofuran-3-carboxamide], the figures for the IC50 with HCV replicon genotype 1b (setting [1]) and with HCV replicon genotype 1a (setting [2]) were 2.24 nM and 2 nM, respectively.
The like results for `CNC(=O)c1c(-c2ccc(F)cc2)oc2cc(N(C)S(C)(=O)=O)c(-c3ccc4c(n3)C(=O)N(Cc3ccc(C#N)cc3)CO4)cc12` [Compound 9] were, in that order, 3.91 nM and 8.03 nM.
Consider `CNC(=O)c1c(-c2ccc(F)cc2)oc2cc(N(C)S(C)(=O)=O)c(-c3cc(C)c4nnn(Cc5ccc(F)cc5)c(=O)c4c3)cc12` [Compound 74, 5-[3-(4-fluorobenzyl)-8-methyl-4-oxo-3,4-dihydro-1,2,3-benzotriazin-6-yl]-2-(4-fluorophenyl)-N-methyl-6-[methyl(methylsulfonyl)amino]-1-benzofuran-3-carboxamide], for which the IC50 with HCV replicon genotype 1b (setting [1]) is 7.08 nM; in the assay on HCV replicon genotype 1a (setting [2]), 11.9 nM.
For `CNC(=O)c1c(-c2ccc(F)cc2)oc2cc(N(C)S(C)(=O)=O)c(-c3ccc4nnn(Cc5ccc(F)cc5)c(=O)c4c3)cc12` [Compound 44, 5-[3-(4-fluorobenzyl)-4-oxo-3,4-dihydro-1,2,3-benzotriazin-6-yl]-2-(4-fluorophenyl)-N-methyl-6-[methyl(methylsulfonyl)amino]-1-benzofuran-3-carboxamide] the same measures were 10.5 nM and 5.62 nM.
The like results for `CNC(=O)c1c(-c2ccc(F)cc2)oc2cc(N(C)S(C)(=O)=O)c(-c3cc4c(=O)n(Cc5ccc(F)cc5)nnc4cc3C)cc12` [Compound 72, 5-[3-(4-fluorobenzyl)-7-methyl-4-oxo-3,4-dihydro-1,2,3-benzotriazin-6-yl]-2-(4-fluorophenyl)-N-methyl-6-[methyl(methylsulfonyl)amino]-1-benzofuran-3-carboxamide] were, in that order, 6.47 nM and 8.62 nM.
As to `CNC(=O)c1c(-c2ccc(F)cc2)oc2cc(N(C)S(C)(=O)=O)c(-c3ccc4c(n3)C(=O)N(c3cccc(F)c3)CO4)cc12` [Compound 3], the IC50 in the assay on HCV replicon genotype 1b (setting [1]) was 2.84 nM; in the assay on HCV replicon genotype 1a (setting [2]), 4.83 nM.
Regarding `CNC(=O)c1c(-c2ccc(F)cc2)oc2cc(N(C)S(C)(=O)=O)c(-c3ccc4c(n3)C(=O)N([C@@H](C)c3ccc(F)cc3)CO4)cc12` [Compound 31, (S)-2-(4-fluorophenyl)-5-(3-(1-(4-fluorophenyl)ethyl)-4-oxo-3,4-dihydro-2H-pyrido[2,3-e][1,3]oxazin-6-yl)-N-methyl-6-(N-methylmethylsulfonamido)benzofuran-3-carboxamide], the figures for the IC50 in the assay with HCV replicon genotype 1b (read-out: 1b IC50) and in the assay on HCV replicon genotype 1a (read-out: 1a IC50) were 12.5 nM and 41.8 nM, respectively.
Take `CNC(=O)c1c(-c2ccc(F)cc2)oc2cc(N(C)S(C)(=O)=O)c(-c3ccc4nc(C)n(Cc5ccc(F)cc5OC)c(=O)c4n3)cc12` [Compound 63, 5-(3-(4-fluoro-2-methoxybenzyl)-2-methyl-4-oxo-3,4-dihydropyrido[3,2-d]pyrimidin-6-yl)-2-(4-fluorophenyl)-N-methyl-6-(N-methylmethylsulfonamido)benzofuran-3-carboxamide]: the IC50 in the assay with HCV replicon genotype 1b (setting [1]) amounted to 9 nM; in the assay with HCV replicon genotype 1a (setting [2]) it was 23.7 nM.
The like results for `CNC(=O)c1c(-c2ccc(F)cc2)oc2cc(N(C)S(C)(=O)=O)c(-c3ccc4ncn(Cc5ccc(F)cn5)c(=O)c4c3)cc12` [Compound 52, 2-(4-fluorophenyl)-5-{3-[(5-fluoropyridin-2-yl)methyl]-4-oxo-3,4-dihydroquinazolin-6-yl}-N-methyl-6-[methyl(methylsulfonyl)amino]-1-benzofuran-3-carboxamide] were, in that order, 2.11 nM and 6.37 nM.
